In patent publication US10166249B2, “Substituted bicyclic compounds” (BRISTOL-MYERS SQUIBB COMPANY, priority 2014, dated 2019):
Entries after “also recorded” stand apart in the source; their conditions may differ. Where two headings read alike, the source gives them in different places. Each block holds one compound with its values, some of them ahead of it.

What was measured:
S1P1 [1] = molecular target: T1, S1P1 (Homo sapiens (Human), UniProt P21453); assay: Receptor [35S] GTPγS binding assay (S1P1 GTPγS), membranes from S1P1/CHO cells; type: biochemical; conditions: for activity as an agonist of S1P1: result in words
T1 sequence (P21453 whole entry): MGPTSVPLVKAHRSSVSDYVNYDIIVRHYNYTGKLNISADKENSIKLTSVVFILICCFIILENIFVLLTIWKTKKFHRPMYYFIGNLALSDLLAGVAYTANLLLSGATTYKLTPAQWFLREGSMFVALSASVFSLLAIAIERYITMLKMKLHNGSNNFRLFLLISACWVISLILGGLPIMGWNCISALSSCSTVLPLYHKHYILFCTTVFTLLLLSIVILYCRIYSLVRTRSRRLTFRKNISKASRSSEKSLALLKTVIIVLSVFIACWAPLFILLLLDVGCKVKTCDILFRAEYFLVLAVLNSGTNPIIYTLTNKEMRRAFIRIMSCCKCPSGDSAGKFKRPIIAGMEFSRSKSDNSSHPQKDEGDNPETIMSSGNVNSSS
Method: (§1) Receptor [^35S] GTPγS Binding Assays: (S1P1 GTPγS/S1P3 GTPγS)
(§2) Membranes prepared from S1P1/CHO cells or EDG3-Gal5-bla HEK293T cells (EDG3 equivalent S1P3) were added to the compound plate ([…], final protein 3 μg/well) with MULTIDROP®. [^35S]GTP (1250 Ci/mmol, Perkin Elmer) was diluted in assay buffer: 20 mM HEPES, pH7.5, 10 mM MgCl2, 150 mM NaCl, 1 mM EGTA (ethylene glycol tetraacetic acid), 1 mM DTT (Dithiothreitol), 10 μM GDP, 0.1% fatty acid free BSA, and 10 μg/ml Saponin to 0.4 nM. 40 μl of the [^35S] GTP solution was added to the compound plate with a final concentration of 0.2 nM. The reaction was kept at room temperature for 45 min. At the end of incubation, all the mixtures in the compound plate were transferred to Millipore 384-well FB filter plates via the VELOCITY11® Vprep liquid handler. The filter plate was washed with water 4 times by using the manifold Embla plate washer and dried at 60° C. for 45 min. MicroScint 20 scintillation fluid (30 μl) was added to each well for counting on the Packard TOPCOUNT®.
A larger value for the GTPγS S1P3 EC50 value indicated less activity in the GTPγS S1P3 binding assay.

S1P3 (EDG3) = S1P3 (EDG3) (Homo sapiens (Human), UniProt Q99500); assay: Receptor [35S] GTPγS binding assay (S1P3 GTPγS), membranes from EDG3-Gal5-bla HEK293T cells; type: biochemical
S1P3 (EDG3), sequence (Q99500 whole entry): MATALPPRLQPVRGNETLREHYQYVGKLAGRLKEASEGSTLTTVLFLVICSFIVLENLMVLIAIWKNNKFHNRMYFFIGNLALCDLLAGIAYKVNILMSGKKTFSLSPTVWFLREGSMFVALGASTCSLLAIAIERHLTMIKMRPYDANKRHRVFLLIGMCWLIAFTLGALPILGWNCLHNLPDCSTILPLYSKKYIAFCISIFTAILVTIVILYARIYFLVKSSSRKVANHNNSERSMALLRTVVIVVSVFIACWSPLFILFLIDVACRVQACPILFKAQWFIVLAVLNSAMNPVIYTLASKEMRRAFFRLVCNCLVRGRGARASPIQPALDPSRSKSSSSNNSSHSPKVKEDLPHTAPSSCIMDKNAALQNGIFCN
Method: as §1
as §2, with “Compounds were loaded in a 384 Falcon v-bottom plate ([…] in a 11 point, 3-fold dilution). Membranes” for “Membranes”
A smaller value for GTPγS S1P1 EC50 value indicated greater activity for the compound in the GTPγS S1P1 binding assay. A larger value for the GTPγS S1P3 EC50 value indicated less activity in the GTPγS S1P3 binding assay. […]

S1P1 [2] = molecular target: T1, S1P1; assay: S1P1 binding assay (33P-S1P radioligand competition, membranes from CHO cells)
Method: Membranes were prepared from CHO cells expressing human S1P1. Cells pellets (1×10^9 cells/pellet) were suspended in buffer containing 20 mM HEPES (4-(2-hydroxyethyl)-1-piperazineethanesulfonic acid), pH 7.5, 50 mM NaCl, 2 mM EDTA (Ethylenediaminetetraacetic acid) and Protease Inhibitor cocktail (Roche), and disrupted on ice using the Polytron homogenizer. The homogenate was centrifuged at 20,000 rpm (48,000 g) and the supernatant was discarded. The membrane pellets were resuspended in buffer containing 50 mM HEPES, pH 7.5, 100 mM NaCl, 1 mM MgCl2, 2 mM EDTA and stored in aliquots at −80° C. after protein concentration determination.

[3] = tested on: rat adjuvant-induced arthritis model (hind paw volume); assay: Rat Adjuvant Induced Arthritis Assay (AA); type: in vivo, Lewis rats; conditions: Lewis rat, prophylactic oral dosing regimen
Method: Rat Adjuvant Induced Arthritis Assay (AA)
The rat adjuvant-induced arthritis model is an animal model for human rheumatoid arthritis.
Male Lewis rats (150-175 g; Harlan, n=8 treatment group) were immunized at the base of the tail with 100 μl of 10 mg/ml freshly ground Mycobacterium butyricum (Difco Laboratories) in incomplete Freund's adjuvant (sigma). Animals were dosed once daily with the test article (as a solution or suspension in the vehicle) or vehicle alone (polyethylene glycol 300, “PEG300”) starting from the day of immunization. The volumes of their hind paws were measured in a water displacement plethysmometer (Ugo Basile, Italy). The baseline paw measurements were taken before onset of the disease (between day 7 to day 10). The paw measurements were then taken three times a week until the end of the study on day 20 to 21. All procedures involving animals were reviewed and approved by the Institutional Animal Care Use Committee.

[4] = tested on: mouse EAE model (clinical score); assay: Mouse Experimental Autoimmune Encephalomyelitis Assay (EAE); type: in vivo; conditions: C57Bl/6 mice, prophylactic oral dosing regimen
Method: Mouse Experimental Autoimmune Encephalomyelitis Assay (EAE)
Mice (C57BL/6 female, 6-8 weeks of age, Charles River, n=10 treatment group) were immunized subcutaneously with 150 μg MOG35-55 emulsified 1:1 with incomplete Freund's adjuvant (sigma) supplemented with 150 μg Mycobacterium tuberculosis H37RA (Difco Laboratories). 400 ng of pertussis toxin (CalBiochem) was injected intraperitoneally on the day of immunization and 2 day later. Clinical scoring and body weight were taken 3 times per week. Clinical scoring system: 0.5: partial tail weakness; 1: limp tail or waddling gait with tail tonicity; 1.5: waddling gait with partial tail weakness; 2: waddling gait with limp tail (ataxia); 2.5: ataxia with partial limb paralysis; 3: full paralysis of one limb; 3.5: full paralysis of one limbs with partial paralysis of a second limb; 4: full paralysis of two limbs; 4.5: moribund; 5: death. Mean clinical score was calculated by averaging the scores of all mice in each group. All procedures involving animals were reviewed and approved by the Institutional Animal Care Use Committee.

[5] = tested on: rat EAE model (clinical score); assay: Rat Experimental Autoimmune Encephalomyelitis (EAE); type: in vivo, Lewis rats; conditions: Lewis rat; for Clinical Score on Day 11 (Mean): rat EAE, prophylactic oral dosing
Method: Rat Experimental Autoimmune Encephalomyelitis (EAE):
Female Lewis rats (150-200 g; Harlan) were immunized at the base of the tail with 0.1 ml of a complete Freund's adjuvant emulsion containing 0.5 mg/mL guinea pig myelin basic protein (Genemed Synthesis) and 2 mg/mL Mycobacterium butyricum (Difco). Beginning on Day 7, rats (n=11/group) were scored individually at least 3×/wk according to the following scheme:
Average clinical scores were calculated for each treatment group on each day of assessment.

[6] = tested on: MRL/lpr spontaneous lupus model; assay: MRL/lpr Lupus Model (anti-dsDNA antibody titers, kidney histology); type: in vivo; conditions: MRL/lpr mice, p.o. daily, 0.06, 0.3, 1.5 mg/kg
Text: MRL/lpr Lupus Model: MRL/lpr is a spontaneous model of lupus. Male MRL/lpr mice (Jackson Laboratory) at the age of 12-14 weeks were enrolled for the study (N=12). […] Mice were bled every other week for anti-dsDNA antibodies measured by ELISA using pooled serum from diseased MRL/lpr mice as a positive comparator in each assay. The data were expressed in arbitrary units as a ratio of the titer of the test serum to the titer of the pooled MRL/lpr immune serum. At the end of study, one kidney was collected into 10% neutral buffered formalin and ZincTris fixatives. Fixed tissues were processed into paraffin blocks, sectioned at 3 μm, and stained with H&E or PASH. Kidney sections were graded using following criteria: Glomerular Damage: 1. Mesangial matrix thickening, cell proliferation, 2. Crescent formation, cellular deposits/casts in Bowman's space, 3. Cellular infiltration, mononuclear cells in glomerular tufts, 4. Fibrosis of Bowman's capsule. Tubular damage: 1. Infiltration of mononuclear cells, 2. Severity of tubular damage, 3. Protein casts. Tubulo-interstitial damage: 1. Fibrosis, 2. Infiltration of mononuclear cells. Each subcategory was assigned a score from 0-4, with the scores for glomerular indices representing the mean from 20 glomeruli per kidney. The total score for each mouse was the sum of the above 9 subcategories, with the highest possible score=36.

hS1P1 = hS1P1 (Homo sapiens (Human), UniProt P21453); assay: hS1P1 ERK phosphorylation (S1P1 pERK) in hS1P1/CHO cells; type: cell-based; conditions: phosphate examples
hS1P1, sequence (P21453 whole entry): as the sequence (P21453 whole entry) above
Method: hS1P1 ERK Phosphorylation (S1P1 pERK)
hS1P1/CHO cells were plated into BD Amine 384-well plates the day before the assay. On the day of the assay, growth medium was removed and replaced with serum-free medium (Ham's F-12 Invitrogen) and incubated for 2 hours. Test compounds pre-diluted in HBSS (Gibco)/20 mM HEPES (Gibco) were transferred to the cell plates and incubated for 7 minutes at 37° C. Cells were lysed in lysis buffer (Perkin Elmer) and phospho-ERK was measured using the SureFire pERK kit (Perkin Elmer) as described by the manufacturer. Data was plotted as percentage activation of the test compound relative to the efficacy of 10 μM S1P.

[7] = membranes from S1P1/CHO cells, read-out: GTPγS S1P1 EC50
[8] = 33P-S1P competition, membranes from CHO cells expressing human S1P1, read-out: S1P1 Binding IC50

Structure (SMILES): COCCCCC[C@H]1CCc2cc([C@H]3CC[C@](N)(CO)C3)ccc2C1 [Example 672, ((1R,3S)-1-amino-3-((S)-6-(5-methoxypentyl)-5,6,7,8-tetrahydronaphthalen-2-yl)cyclopentyl)methanol]
inhibition of disease progression as measured by reduced paw swelling [3]: showed inhibition of disease progression

Structure (SMILES): CCOCCC[C@@H]1CCc2cc([C@H]3CC[C@](N)(CO)C3)ccc2C1 [Example 679, ((1R,3S)-1-amino-3-((S)-6-(3-ethoxypropyl)-5,6,7,8-tetrahydronaphthalen-2-yl)cyclopentyl)methanol]
inhibition of disease progression as measured by reduced paw swelling [3]: showed inhibition of disease progression | inhibition of disease progression as measured by clinical scores [4]: showed inhibition of disease progression; also recorded: inhibit disease progression | inhibition of disease progression as measured by reduced clinical scores ([5]; prophylactic oral dosing regimen): showed inhibition of disease progression | Clinical Score on Day 11 (Mean) ([5]; 0.3 mg/kg): 0.36 | Clinical Score on Day 11 (Mean) ([5]; 1.0 mg/kg): 0.09 | Clinical Score on Day 11 (Mean) ([5]; 3.0 mg/kg): 0.02

Structure (SMILES): COc1ccccc1CC[C@@H]1CCc2cc([C@H]3CC[C@](N)(CO)C3)ccc2C1 [Example 681, ((1R,3S)-1-amino-3-((S)-6-(2-methoxyphenethyl)-5,6,7,8-tetrahydronaphthalen-2-yl)cyclopentyl)methanol]
inhibition of disease progression as measured by clinical scores [4]: showed inhibition of disease progression; also recorded: inhibit disease progression | inhibition of disease progression as measured by anti-dsDNA titers and kidney histology [6]: showed inhibition of disease progression

Structure (SMILES): CCC/C=C/CO[C@@H]1CCc2cc([C@H]3CC[C@](N)(COP(=O)(O)O)C3)ccc2C1 [compound 439]
IC50 (S1P1 [2]; phosphate examples, read-out: S1P1 Binding): < 10 nM | EC50 (S1P1 [1]; phosphate examples, read-out: S1P1 GTPγS): 10 to 100 nM | EC50 (S1P3 (EDG3); phosphate examples): > 625 nM | EC50 (hS1P1): < 10 nM

Other lines, results leading:

activity as an agonist of S1P1 (S1P1 [1]): possessed activity as an agonist of S1P1 | selectivity over S1P3 (S1P3 (EDG3); result in words, S1P1 versus S1P3 GTPγS): selective over S1P3
Structure (SMILES): COCCCCCC1CCc2cc([C@H]3CC[C@](N)(COP(=O)(O)O)C3)ccc2C1 (single isomer, unassigned) [Example 689]

EC50 (S1P1 [1]; [7]): 4.4 nM
Structure (SMILES): COCCCCCC1CCc2cc([C@@H]3CC[C@](N)(COP(=O)(O)O)C3)ccc2C1 (single isomer, unassigned) [Example 692]

IC50 (S1P1 [2]; [8]): 5.2 nM | EC50 (S1P1 [1]; [7]): 19.2 nM
Structure (SMILES): COc1cccc(CCC2CCc3cc([C@H]4CC[C@](N)(COP(=O)(O)O)C4)ccc3C2)c1 (single isomer, unassigned) [Example 693]

IC50 (S1P1 [2]; [8]): 119 nM | EC50 (S1P1 [1]; [7]): 49 nM
Structure (SMILES): CCOCCCC1CCc2cc([C@H]3CC[C@](N)(COP(=O)(O)O)C3)ccc2C1 (single isomer, unassigned) [Example 695]

activity as an agonist of S1P1 (S1P1 [1]): possessed activity as an agonist of S1P1
Structure (SMILES): COc1ccccc1CCC1CCc2cc([C@H]3CC[C@](N)(COP(=O)(O)O)C3)ccc2C1 (single isomer, unassigned) [Example 697]
